Test results: PMC5826112, “Intrapulmonary Pharmacokinetics of Relebactam, a Novel β-Lactamase Inhibitor, Dosed in Combination with Imipenem-Cilastatin in Healthy Subjects” (Antimicrobial Agents and Chemotherapy, 2018)
Read-outs that look alike come from different tables or passages of the source.

Key:
[1] = set-up: method as in PMID 27503659, PMID 28575389; settings: coadministration with imipenem-cilastatin, phase 2 clinical studies; cited from earlier work
[2] = no reference given; cited from earlier work
[3] = set-up: method as in PMID 25403667; settings: thigh infection model; cited from earlier work
[4] = Intrapulmonary (ELF, AC) and plasma pharmacokinetics after multiple-dose IV relebactam with imipenem-cilastatin, bronchoscopy/BAL, noncompartmental analysis; type: in vivo, human (healthy subjects); settings: for t1/2 (terminal half-life) / half-life / AUC(0-inf) / Cmax / Tmax / AUC(0-t): mean profile; for half-life: read-out: t1/2 (terminal half-life) (converted); for Kp at 1 h: 1.0 h after last dose; for Kp at 3 h: 3.0 h after last dose; for AUC(0-inf): noncompartmental analysis; for AUC(0-t): read-out: AUC0–3
Procedure: Dosing and administration of imipenem-cilastatin were carried out in a manner consistent with the recommended labeled posology. BAL fluid specimens were obtained during bronchoscopy for the determination of the relebactam and imipenem concentrations in the ELF and AC. Four aliquots of normal saline (50 ml each) were sequentially instilled and aspirated after each instillation. The first aspirate was discarded, and the remaining aspirates were pooled and used to obtain urea and drug level measurements. Aliquots were obtained for cell count/differential, and the remainder of the pooled aspirates was centrifuged. The liquid aspirate and cell pellet were separated and stored at −70°C. The supernatant was sent for urea and drug level measurements. Blood samples were collected prior to the first and fifth doses of study drug for the determination of relebactam and imipenem plasma concentrations. Blood samples were also collected during the bronchoscopy/BAL procedure for the determination of relebactam, imipenem, and urea concentrations. Relebactam and imipenem levels in plasma, pulmonary ELF, and AC were measured simultaneously via acetonitrile protein precipitation and hydrophilic interaction liquid chromatography (HILIC) with detection via liquid chromatography-tandem mass spectrometry (LC-MS/MS). The system consisted of a Waters Acquity ultraperformance liquid chromatograph (Waters Corp., Milford, MA) and an API 4000 or 5000 triple-quadrupole tandem mass spectrometer (Sciex, Framingham, MA) equipped with a turbo-ion spray interface and operated in the positive ionization mode. The multiple reaction monitoring (MRM) transitions monitored were m/z 349 → 269 for relebactam, m/z 300 → 98 for imipenem, and m/z 354 → 274 and m/z 307 → 98 for their respective internal standards. […] The ELF volumes recovered by BAL were determined by using urea as an endogenous marker to provide a dilution ratio by measurement of urea concentrations in the BAL fluid and serum ([33]). […] The mean value for each time point was used to conduct the noncompartmental analysis using Phoenix (version 6.3) software (Pharsight Corporation, Mountain View, CA) and to calculate the values of the PK parameters on the basis of the mean profile in each matrix.

[5] = set-up: method as in earlier work; settings: cited from earlier work
[6] = Relebactam population PK model (two-compartment plasma model with time-invariant ELF partition coefficient); type: in vivo, human (healthy subjects)
Procedure: Population PK analysis was conducted using NONMEM (version 7.3) software (ICON plc., Dublin, Ireland). The first-order conditional estimation with interaction (FOCEI) method was applied for parameter estimation. […] To elucidate the relationship between plasma and ELF concentrations, penetration into the ELF was explored using three approaches, each using a naive pooled data approach: (i) a three-compartment model with bidirectional mass transfer between the ELF compartment and the central volume, (ii) a time-invariant partition coefficient driven by the predicted unbound plasma concentration, and (iii) an effect compartment with an input rate constant driven by the concentration difference between the volume in the central compartment and the effect compartment.
The equations comprising the partition coefficient model are as follows: (1) dA1/dt=Q2/V2A2−Q2/V1A1−CL/V1A1 (2) dA2/dt=Q2/V1A1−Q2/V2A2 (3) CELF=kELF·fu,REL·A1/V1 where A1 is the amount of drug in the central compartment, A2 is the amount of drug in the peripheral compartment, CL is the plasma clearance, Q2 is the intercompartmental clearance, V1 is the volume of distribution in the central compartment, V2 is the volume of distribution in the peripheral compartment, CELF is the relebactam concentration in the ELF, fu,ELF is the free fraction of relebactam in plasma (∼80%), kELF is the partition coefficient for distribution into the ELF space, and t is time.
The free fraction in the ELF was assumed to be 100%. Different residual error models (additive, proportional, and combined) were tested for both the plasma and ELF concentrations of relebactam. Model development, including the selection of the structural and residual error model, was based upon the success of minimization, numerical comparison of the objective function values, the precision of the parameter estimates, and the generation of standard model diagnostic plots. The PK of imipenem were not modeled, as the lung penetration data from this study were previously described using a population PK approach ([21]).

[7] = set-up: method as in earlier work; settings: relebactam doses of 125 mg or higher; exceeds single-dose target; cited from earlier work
[8] = set-up: method as in data on file; settings: mice; ref data on file; cited from earlier work
[9] = both sexes, human, AC/plasma, intravenous, same regimen, n=4, read-out: AC/plasma concn GMR (90% CI)
[10] = both sexes, human, ELF/plasma, intravenous, same regimen, n=4, read-out: ELF/plasma concn GMR (90% CI)
[11] = both sexes, human, intravenous, AC, same regimen
[12] = both sexes, human, intravenous, ELF, same regimen
[13] = both sexes, human, intravenous, plasma, same regimen

For `O=C(NC1CCNCC1)[C@@H]1CC[C@@H]2CN1C(=O)N2OS(=O)(=O)O` [relebactam], the tolerability [1] is listed as “generally well tolerated”, the “unbound in plasma (free fraction)” value [2] is listed as ~80% and the “required exposure (AUC0–24) for efficacy” value [3] is listed as ~100 µM·h. The “t1/2 (terminal half-life)” value ([4]; AC, same regimen) was 2.25 h, the “t1/2 (terminal half-life)” value ([4]; ELF, same regimen) was 1.29 h and the “GMR for the relebactam concentration versus the imipenem concentration in ELF” value ([4]; at the Tmax of imipenem (0.5 h), 90% CI 45%, 49%) was 47%. The half-life ([4]; both sexes, human, AC, intravenous, AC, same regimen) was 2.3 h, the Kp ([4]; both sexes, human, AC/plasma, intravenous, mean profiles, after adjustment for protein binding, read-out: relative exposure (AUC0–∞) in AC versus plasma) was 0.36 and the Kp ([4]; both sexes, human, AC/plasma, intravenous, same regimen, 0.5 to 3 h after last dose, read-out: GMRs for AC/plasma concentrations, range across time points) was 0.14 to 0.51. It also gave a Kp at 0.5 h ([4]; both sexes, human, AC/plasma, intravenous, same regimen, 0.5 h after last dose, n=4, read-out: AC/plasma concn GMR (90% CI)) of 0.14, a Kp at 1 h [4, 9] of 0.25 and a Kp at 1.5 h ([4]; both sexes, human, AC/plasma, intravenous, same regimen, 1.5 h after last dose, n=4, read-out: AC/plasma concn GMR (90% CI)) of 0.38. The Kp at 3 h [4, 9] was 0.51, the half-life ([4]; both sexes, human, ELF, intravenous, ELF, same regimen) was 1.3 h and the concentration at 0.5 h ([4]; both sexes, human, ELF, intravenous, same regimen, 0.5 h after last dose, n=4, read-out: concn in ELF, GM) was 14.9 µM. For the same compound, the concentration at 1 h ([4]; both sexes, human, ELF, intravenous, same regimen, 1 h after last dose, n=4, read-out: concn in ELF, GM) was 10.9 µM, the concentration at 1.5 h ([4]; both sexes, human, ELF, intravenous, same regimen, 1.5 h after last dose, n=4, read-out: concn in ELF, GM) was 9.49 µM and the concentration at 3 h ([4]; both sexes, human, ELF, intravenous, same regimen, 3 h after last dose, n=4, read-out: concn in ELF, GM) was 4.27 µM. The Kp ([4]; both sexes, human, ELF/plasma, intravenous, calculated as 100 · ELF AUC0–∞/plasma AUC0–∞/0.8, adjusted for protein binding (80% unbound in plasma, 100% free in ELF), read-out: Adjusted ELF/plasma AUC0–∞ ratio) was 0.54, the Kp ([4]; both sexes, human, ELF/plasma, intravenous, calculated as 100 · ELF AUC0–∞/plasma AUC0–∞, mean profiles, read-out: ELF/plasma AUC0–∞ ratio) was 0.43 and the Kp ([4]; both sexes, human, ELF/plasma, intravenous, same regimen, 0.5 to 3 h after last dose, read-out: GMRs for ELF/plasma concentrations, range across time points) was 0.32 to 0.51. The Kp at 1 h [4, 10] was 0.35, the Kp at 1.5 h ([4]; both sexes, human, ELF/plasma, intravenous, same regimen, 1.5 h after last dose, n=4, read-out: ELF/plasma concn GMR (90% CI)) was 0.51 and the Kp at 3 h [4, 10] was 0.46. The Kp at 0.5 h ([4]; both sexes, human, ELF/plasma, iv, healthy subjects, relebactam 250 mg with imipenem-cilastatin 500 mg IV every 6 h, 5 doses, 0.5 h after last dose, n=4, read-out: ELF/plasma concn GMR (90% CI)) was 0.32, the AUC(0-inf) [4, 11] was 23.6 µM·h and the Cmax [4, 11] was 7.81 µM. It also gave a Tmax [4, 11] of 1 h, an AUC(0-t) [4, 11] of 12.8 µM·h and an AUC(0-inf) [4, 12] of 34.9 µM·h. The Cmax [4, 12] was 15.3 µM, the Tmax [4, 12] was 0.5 h and the AUC(0-t) [4, 12] was 26.7 µM·h. It also gave an AUC(0-inf) [4, 13] of 81.2 µM·h, a Cmax [4, 13] of 47.9 µM and a Tmax [4, 13] of 0.5 h. For the same compound, the AUC(0-t) [4, 13] was 64.7 µM·h, the half-life ([4]; both sexes, human, plasma, intravenous, plasma, same regimen) was 1.2 h and the “Adjusted ELF/plasma AUC0–∞ ratio” value ([4]; calculated as 100 · ELF AUC0–∞/plasma AUC0–∞/0.8, adjusted for protein binding (80% unbound in plasma, 100% free in ELF)) was 53.7%. For the same compound, the “t1/2 (terminal half-life)” value ([4]; plasma, same regimen) was 1.24 h, the “Relebactam/imipenem concn ratio in ELF, GMR” value ([4]; same regimen, 0.5 h after last dose) was 0.47 and the “Relebactam/imipenem concn ratio in ELF, GMR” value ([4]; same regimen, 1 h after last dose) was 0.54. For the same compound, the “Relebactam/imipenem concn ratio in ELF, GMR” value ([4]; same regimen, 1.5 h after last dose) was 0.58, the “Relebactam/imipenem concn ratio in ELF, GMR” value ([4]; same regimen, 3 h after last dose) was 0.71 and the “single-dose target (AUC0–∞)” value ([5]; derived from the target of 150 μM · h after four times daily dosing) was 37.5 µM·h. The “required exposure (AUC0–24) for efficacy” value ([5]; pulmonary infection model) was 150 µM·h, the Kp ([6]; human, ELF / unbound plasma, intravenous, driven by predicted unbound plasma concentration, read-out: Penetration coefficient for ELF (θkELF)) was 0.553 and the Kp ([6]; human, ELF/unbound plasma, intravenous, based on free drug levels, read-out: time-invariant partition coefficient (ELF) estimated by the model) was 0.55. For the same compound, the clearance ([6]; human, plasma, intravenous, population PK structural model, read-out: Clearance (θCL) (converted)) was 153 mL/min, the Vd ([6]; human, plasma, intravenous, population PK structural model, read-out: Volume of distribution in the central compartment (θVc)) was 15.3 L and the “Intercompartmental clearance (θQ2)” value ([6]; population PK structural model) was 2.64 L/h. The “Volume of distribution in the peripheral compartment (θVp)” value ([6]; population PK structural model) was 10.6 L, the “exposure (AUC0–∞)” value [7] was > 37.5 µM·h and the “penetration into the murine lung, ratio of total drug levels in the lung to total drug levels in plasma” value [8] was “approximately 34%”.
